Literature values as cited in patent US3993756A, “Antilipemic agent containing a soybean oil fraction” (priority 1975, dated 1976).

Experiments:
[1] = tested on: cholesterol level in blood serum; conditions: for effect on cholesterol level in blood serum: in vivo
[2] = in vivo

Compound	effect on cholesterol level in blood serum [1]	absorption by the body [2]	liver or kidney troubles ([1]; 20 to 30 g per day, long periods)
CC[C@H](/C=C/[C@@H](C)[C@H]1CC[C@H]2[C@@H]3CC=C4C[C@@H](O)CC[C@]4(C)[C@H]3CC[C@]12C)C(C)C [stigmasterol]	effective for lowering the cholesterol level in blood serum		
CC[C@H](CC[C@@H](C)[C@H]1CC[C@H]2[C@@H]3CC=C4C[C@@H](O)CC[C@]4(C)[C@H]3CC[C@]12C)C(C)C [β-sitosterol]	effective for lowering the cholesterol level in blood serum	low absorption	inviting liver or kidney troubles
